The source of these data is ChEMBL document CHEMBL4673190, “Recent developments in anticancer kinase inhibitors based on the pyrazolo[3,4-d]pyrimidine scaffold” (RSC Med Chem, 2020).

For one experiment, the system named is HepG2. Briefly: Cytotoxicity against human HepG2 cells incubated for 72 hrs by MTT assay. It counts as functional, cell-based. To be noted: HepG2, 72 h. (Tetrazolium dyes change colour on reduction, which living cells bring about.)
The test system of another experiment is A549. Briefly: Cytotoxicity against human A549 cells incubated for 72 hrs by MTT assay. The experiment is classed as functional, cell-based. To be noted: A549, 72 h.
For a further experiment, the system named is MCF7. In words: Cytotoxicity against human MCF-7 cells incubated for 72 hrs by MTT assay. The experiment is classed as functional, cell-based. To be noted: MCF7, 72 h.
Experiment [1] addresses Vascular endothelial growth factor receptor 2 (Homo sapiens, UniProt P35968). In words: Inhibition of N-terminal GST-tagged human VEGFR2 (805 to 1356 residues) expressed in a baculovirus infected Sf9 insect cell incubated for 45 mins by Kinase-Glo max reagent-based luminescence assay.
Experiment [2] concerns the target Cyclin-dependent kinase 2/cyclin E1 (Homo sapiens, UniProt P24941). Briefly: Inhibition of CDK2/cyclin E (unknown origin) expressed in baculovirus infected Sf21 insect cells using histone H1 as substrate in presence of [gamma33P]ATP.
Experiment [3] concerns the target T1, Tyrosine-protein kinase JAK3 (Homo sapiens, UniProt P52333).
T1 sequence (P52333 whole entry): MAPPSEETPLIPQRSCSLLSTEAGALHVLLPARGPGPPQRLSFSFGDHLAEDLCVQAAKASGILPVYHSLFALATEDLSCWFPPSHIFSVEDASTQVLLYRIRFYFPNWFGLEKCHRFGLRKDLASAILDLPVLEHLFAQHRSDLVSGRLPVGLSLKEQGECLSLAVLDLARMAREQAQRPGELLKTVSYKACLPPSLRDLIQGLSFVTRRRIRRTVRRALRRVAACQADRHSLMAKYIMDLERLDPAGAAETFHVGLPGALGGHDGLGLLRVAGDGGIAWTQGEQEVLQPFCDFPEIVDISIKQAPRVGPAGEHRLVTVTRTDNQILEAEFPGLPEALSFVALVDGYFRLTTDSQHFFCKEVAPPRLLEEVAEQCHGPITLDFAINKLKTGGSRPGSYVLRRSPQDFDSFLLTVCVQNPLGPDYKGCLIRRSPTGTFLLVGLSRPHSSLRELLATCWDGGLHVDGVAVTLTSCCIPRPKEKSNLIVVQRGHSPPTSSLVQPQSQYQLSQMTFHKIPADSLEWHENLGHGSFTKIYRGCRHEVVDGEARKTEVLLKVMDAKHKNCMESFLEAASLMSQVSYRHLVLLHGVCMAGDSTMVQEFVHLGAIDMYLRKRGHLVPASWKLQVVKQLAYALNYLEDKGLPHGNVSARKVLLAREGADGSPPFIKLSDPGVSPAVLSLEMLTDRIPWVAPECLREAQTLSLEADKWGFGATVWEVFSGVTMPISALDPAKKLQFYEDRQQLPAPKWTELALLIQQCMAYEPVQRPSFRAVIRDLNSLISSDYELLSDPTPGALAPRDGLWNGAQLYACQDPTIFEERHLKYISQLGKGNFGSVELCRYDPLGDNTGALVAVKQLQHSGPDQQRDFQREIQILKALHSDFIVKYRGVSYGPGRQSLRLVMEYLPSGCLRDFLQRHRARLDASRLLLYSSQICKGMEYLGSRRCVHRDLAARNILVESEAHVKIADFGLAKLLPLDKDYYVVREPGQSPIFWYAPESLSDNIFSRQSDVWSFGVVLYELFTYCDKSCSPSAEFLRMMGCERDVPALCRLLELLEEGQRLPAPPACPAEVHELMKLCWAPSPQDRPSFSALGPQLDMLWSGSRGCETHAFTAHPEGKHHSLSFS
In words: Inhibition of JAK3 (unknown origin).

The species named for experiment [4] is Homo sapiens. In words: Selectivity index, ratio of IC50 for human JAK2 expressed in baculovirus expression system to IC50 for human JAK3 expressed in baculovirus expression system.
The species named for experiment [5] is Homo sapiens. Briefly: Selectivity index, ratio of IC50 for human JAK1 expressed in baculovirus expression system to IC50 for human JAK3 expressed in baculovirus expression system.

Vascular endothelial growth factor receptor 2, sequence (P35968 whole entry, the tested form may be a part): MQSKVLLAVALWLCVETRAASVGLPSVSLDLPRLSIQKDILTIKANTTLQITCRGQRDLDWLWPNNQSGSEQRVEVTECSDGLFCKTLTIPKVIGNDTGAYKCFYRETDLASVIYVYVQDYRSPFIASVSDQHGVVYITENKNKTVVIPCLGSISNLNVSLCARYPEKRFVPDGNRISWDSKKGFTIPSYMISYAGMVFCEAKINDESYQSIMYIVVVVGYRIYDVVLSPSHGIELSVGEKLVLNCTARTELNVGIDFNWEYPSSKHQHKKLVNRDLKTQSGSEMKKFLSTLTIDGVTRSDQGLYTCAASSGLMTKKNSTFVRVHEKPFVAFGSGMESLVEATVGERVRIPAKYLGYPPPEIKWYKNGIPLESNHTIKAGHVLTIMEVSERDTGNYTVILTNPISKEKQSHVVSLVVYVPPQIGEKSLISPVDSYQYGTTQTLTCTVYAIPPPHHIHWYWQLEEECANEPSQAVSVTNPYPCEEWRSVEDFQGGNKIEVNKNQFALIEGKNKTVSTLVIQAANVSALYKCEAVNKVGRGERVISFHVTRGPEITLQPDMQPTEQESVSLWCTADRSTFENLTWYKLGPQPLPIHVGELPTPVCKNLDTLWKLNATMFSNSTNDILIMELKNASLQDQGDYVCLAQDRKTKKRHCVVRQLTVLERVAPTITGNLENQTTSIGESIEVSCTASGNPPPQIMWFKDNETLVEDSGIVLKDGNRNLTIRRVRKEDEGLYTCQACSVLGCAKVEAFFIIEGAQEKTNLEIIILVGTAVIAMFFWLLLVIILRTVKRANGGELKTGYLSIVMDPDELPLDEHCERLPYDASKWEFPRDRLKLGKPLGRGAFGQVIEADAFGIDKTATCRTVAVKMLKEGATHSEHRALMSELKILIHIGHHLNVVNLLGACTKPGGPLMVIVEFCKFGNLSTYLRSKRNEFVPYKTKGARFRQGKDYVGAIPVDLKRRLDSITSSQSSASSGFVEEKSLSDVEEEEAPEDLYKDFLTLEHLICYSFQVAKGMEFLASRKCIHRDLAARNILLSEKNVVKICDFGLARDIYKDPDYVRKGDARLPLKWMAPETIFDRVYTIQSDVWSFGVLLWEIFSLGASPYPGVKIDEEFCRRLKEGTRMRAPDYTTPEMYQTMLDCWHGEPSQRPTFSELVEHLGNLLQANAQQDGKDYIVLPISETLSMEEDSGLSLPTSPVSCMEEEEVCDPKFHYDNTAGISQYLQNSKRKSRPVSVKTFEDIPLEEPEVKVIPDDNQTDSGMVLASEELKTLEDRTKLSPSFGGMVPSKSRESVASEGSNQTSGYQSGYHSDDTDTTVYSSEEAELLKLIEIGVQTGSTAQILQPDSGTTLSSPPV

`Cc1c(C(=O)Nc2ccc(Oc3ncnc4c3cnn4C)c(F)c2)nnn1-c1ccc(F)cc1`: the EC50 in the experiment on HepG2, in the experiment with A549 and in the experiment with MCF7 was at most 10 µM each time.

As for `COc1ccc(-n2nc(C)c3c(Nc4ccc(NC(=O)Nc5ccc(Cl)c(C(F)(F)F)c5)cc4)ncnc32)cc1`, the IC50 in experiment [1] amounted to 0.22 µM.

Consider `O=[N+]([O-])c1cccc(Nc2nc(SCCc3ccccc3)nc3[nH]ncc23)c1`, for which the IC50 in experiment [2] was found to be 5.1 µM.

In turn, `C[C@@H]1CCN(C(=O)CC#N)C[C@@H]1N(C)c1ncnc2[nH]ncc12` displayed an IC50 in experiment [3] of 0.0016 µM.

In the case of `O=C(Oc1nc(SCCc2ccccc2)nc2[nH]ncc12)c1cc2ccccc2o1`, the IC50 in experiment [2] turned out to be 6.8 µM.

Turning to `C=CC(=O)Nc1cccc(Cn2ncc3cnc(Nc4cnn(CCOC)c4)nc32)c1`, the Ratio IC50 in the experiment filed under Homo sapiens [4] and in the experiment filed under Homo sapiens [5] was above 376 each time.

A word on the EC50: it is the concentration giving half of the maximal effect. A low value points to greater potency. Usually IC50 stands for the midpoint of a concentration-inhibition curve.
